# Data from patent publication US8614181B2, “Stabilized pharmaceutical peptide compositions” (Novo Nordisk A/S, priority 2003, dated 2013).
# Test: Thioflavin T-test (ThT) of physical stability (fibril formation) of pharmaceutical formulations after storage at 37° C.
# Format: physicochemical
# Conditions: for Fluorescence units after storage at 37° C., T = 0 week / Fluorescence units after storage at 37° C., T = 1 month / Fluorescence units after storage at 37° C., T = 1 week: pH of pharmaceutical formulation 7.4
# Protocol: Before freeze drying the solution or suspension of the peptide it has been adjusted to the aimed pH. After freeze drying pharmaceutical formulations were prepared according to General procedure 1 and 2.
# Preservative, isotonic agent and buffer were dissolved in water and pH adjusted to 7.4. Hereafter the freeze dried peptide was dissolved while stirring slowly. The pH was adjusted to 7.4 using Sodium Hydroxide and/or Hydrochloric Acid. Finally, the formulation was filtered through a 0.22 μm filter.
# (§1) Preservative, isotonic agent and buffer were dissolved in water and pH adjusted to 7.4. The peptide was dissolved in water while stirring slowly. The two solutions were mixed and pH adjusted to 7.4 using Sodium Hydroxide and/or Hydrochloric acid. Finally, the formulation was filtered through a 0.22 μm filter.
# as §1, with “7.4 or lower. Compound 1” for “7.4. The peptide”, “slowly and pH is adjusted to 11.5 by the addition of Sodium Hydroxide. After approx. 5 min the” for “slowly. The”
# Physical stability of the formulations is evaluated by means of the Thioflavin T-test. The physical stability of the different formulations is characterized by their tendency to form fibrils. A method to determine the presence of fibrils is the Thioflavin T-test. The histological thiazole dye Thioflavin T (ThT) is used as an indicator of amyloid fibril formation. The method is based on the fluorescent characteristics of ThT. […] The physical stability of the formulations is evaluated by the ThT-test after storage of the formulation is top filled glass cartridges for various time periods.
# [1] = pH of Compound 1 before freeze drying 8.0, 3 mg/ml
# [2] = pH of Compound 1 before freeze drying 9.5, 3 mg/ml
# [3] = pH of Compound 1 before freeze drying 9.5, 6.25 mg/ml
# [4] = pH of Compound 1 before freeze drying 11.5, 3 mg/ml
# [5] = pH of Compound 1 before freeze drying 11.5, 6.25 mg/ml
# [6] = pH of solution containing the drug substance 8.0, 6.25 mg/ml
# [7] = pH of solution containing the drug substance 11.5, 6.25 mg/ml
substance,measurement,setting,value
"Arg^34, Lys^26 (N^ε-(γ-Glu(N^α-hexadecanoyl)))GLP-1(7-37) [Compound 1]",Physical stability (change in ThT) after 1 week and 1 months storage at 37° C.,Compound 1 adjusted to pH 8.0 before freeze drying,an increase in ThT is seen
same,Physical stability (change in ThT) after 1 week and 1 months storage at 37° C.,Compound 1 adjusted to pH 9.5 before freeze drying,no increase in ThT is seen
same,Physical stability (change in ThT) after 1 week and 1 months storage at 37° C.,Compound 1 adjusted to pH 11.5 before freeze drying,no increase in ThT is seen
same,"Fluorescence units after storage at 37° C., T = 0 week",[1],6 fluorescence units
same,"Fluorescence units after storage at 37° C., T = 1 month",[1],28 fluorescence units
same,"Fluorescence units after storage at 37° C., T = 1 month","pH of Compound 1 before freeze drying 8.0, 6.25 mg/ml",37 fluorescence units
same,"Fluorescence units after storage at 37° C., T = 0 week",[2],6 fluorescence units
same,"Fluorescence units after storage at 37° C., T = 1 month",[2],7 fluorescence units
same,"Fluorescence units after storage at 37° C., T = 1 month",[3],13 fluorescence units
same,"Fluorescence units after storage at 37° C., T = 1 week",[3],13 fluorescence units
same,"Fluorescence units after storage at 37° C., T = 0 week",[4],6 fluorescence units
same,"Fluorescence units after storage at 37° C., T = 1 month",[4],7 fluorescence units
same,"Fluorescence units after storage at 37° C., T = 0 week",[5],14 fluorescence units
same,"Fluorescence units after storage at 37° C., T = 1 month",[5],14 fluorescence units
same,"Fluorescence units after storage at 37° C., T = 1 week",[5],13 fluorescence units
same,"Fluorescence units after storage at 37° C., T = 0 week",[6],14 fluorescence units
same,"Fluorescence units after storage at 37° C., T = 1 month",[6],41 fluorescence units
same,"Fluorescence units after storage at 37° C., T = 1 week",[6],20 fluorescence units
same,"Fluorescence units after storage at 37° C., T = 0 week",[7],13 fluorescence units
same,"Fluorescence units after storage at 37° C., T = 1 month",[7],13 fluorescence units
same,"Fluorescence units after storage at 37° C., T = 1 week",[7],12 fluorescence units
same,Physical stability (change in ThT) after 1 month at 37° C.,pH raised above neutral pH (>8) in the solution containing the drug substance,no increase in ThT is seen
